Source: patent US20230332245A1, “Complement as Prognostic and Predictive Biomarker and Potential Therapeutic Target in Renal Cell Carcinoma” (Texas Tech University System, priority 2020, published 2023)

Columns and labels:
Assay type in all cases: in vivo, mouse
[1] = test system: genes associated with T cell exhaustion; proangiogenic genes; test: Real time quantitative PCR of gene expression in Renca tumors; details: relative to placebo; FIG. 6K
Description: (§1) Mouse studies were approved by the Institutional Animal Care and Use Committee of the Texas Tech University Health Sciences Center. Eight to twelve weeks old BALB/c, C3ar1, and C5ar1 knockout mice from the Jackson Laboratory were injected s.c. with 1×10^6 Renca cells (ATCC® CRL2947™). When tumors reached ˜5 mm in diameter mice were assigned to treatment cohorts and treated with, C3aR1 inhibitor SB 290157 (Sigma-Aldrich, 10 mg/kg i.p. twice a day), C5aR1 inhibitor PMX53 [17] (1 mg/kg, i.p. every other day), or PD-1 antibody (RMP1-14, BE-0146, Bio X Cell, 250 μg per mouse i.p. every 4 days), or RaIgG2a isotype control (BE-0089, Bio X Cell, 250 μg i.p. every 4 days), as previously described. CD8^+ T cells were depleted by intraperitoneal (i.p.) injection of 200 μg of CD8a-neutralizing antibody (2.43, Bio X cell, NH) per mouse, each day, for three consecutive days, prior to injecting tumor cells. […] BALB/c control mice were treated in the same manner with rat IgG2b (LTF-2, Bio X cell).
RNA was extracted from frozen tissue using RNeasy plus mini kit (Qiagen) and cDNA was generated using High-Capacity RNA-to-cDNA™ kit (Applied Biosystems). […] Relative expression was calculated using the 2^−ΔΔCt method and RT2 profiler PCR Array Data Analysis (SAB Biosciences) and normalized to GAPDH.

[2] = test system: CD8^+ T cells in tumors (TIL); test: Flow cytometry of CD8+ T cells (TIL) and IFN-γ expressing TIL in Renca tumors
Description: Mouse studies were approved by the Institutional Animal Care and Use Committee of the Texas Tech University Health Sciences Center. Eight to twelve weeks old BALB/c, C3ar1, and C5ar1 knockout mice from the Jackson Laboratory were injected s.c. with 1×10^6 Renca cells (ATCC® CRL2947™). When tumors reached ˜5 mm in diameter mice were assigned to treatment cohorts and treated with, C3aR1 inhibitor SB 290157 (Sigma-Aldrich, 10 mg/kg i.p. twice a day), C5aR1 inhibitor PMX53 [17] (1 mg/kg, i.p. every other day), or PD-1 antibody (RMP1-14, BE-0146, Bio X Cell, 250 μg per mouse i.p. every 4 days), or RaIgG2a isotype control (BE-0089, Bio X Cell, 250 μg i.p. every 4 days), as previously described. […]
Cells from tumors were pre-incubated with CD16/32 antibody (Fc block; 2.4G2; BD Pharmingen) and stained with fluorochrome-conjugated antibodies from Biolegend: BV605-CD45 (30-F11), AF700-CD3 (17A2), PerCP/Cy5.5-CD4 (GK1.5), and PE/Cy7-CD8α (53-6.7) as recommended by the manufacturer. To quantify IFN-γ expression, cells were stained with surface markers and permeabilized with Cytofix/Cytoperm (554714, BD Biosciences), and washed with 1× Perm/Wash buffer (554714, BD Biosciences) followed by incubation with PE-IFN-γ (XMG1.2, Biolegend). […] Data were acquired on BD Fortessa and analyzed with FlowJo software (Tree Star).

Renca cells = test: Tumor growth in anti-PD-1-recalcitrant Renca model of RCC; details: BALB/c mice, s.c. Renca tumors; vs placebo (PBS) or isotype IgG; FIG. 6A, 6C
Description: as §1
To test in vivo the role of complement proteins, the inventors used RCC-Renca (ATCC® CRL-2947™), a murine RCC model that while differing from human RCC, has been extensively evaluated in immunotherapy studies and is known to be recalcitrant to ICI [34], and therefore, potentially resembles ICI-resistant RCC. […]

| Compound | expression of genes associated with T cell exhaustion (Pdcd1, Ctla4, Btla, Fas, Stat3) in tumors [1] | TIL function: production of IFN-γ upon ex-vivo restimulation ([2]; FACS after CD3/CD28 restimulation, FIG. 6G-6J) | tumor growth (tumor volumes) (Renca cells) | recruitment of CD8+ T cells to tumors (TIL) ([2]; FACS, FIG. 6D, 6F) |
| --- | --- | --- | --- | --- |
| NC(N)=NCCC[C@H](NC(=O)COCC(c1ccccc1)c1ccccc1)C(=O)O [SB290157] | Btla and Fas were upregulated | highest production of IFN-γ | reduced tumor growth | – |
| PMX53 | reduction in the expression | – | reduced tumor growth | influx CD8^+ T cells to tumors |
